Data set [1] has as its system Staphylococcus aureus. Nature of the data set: Bactericidal activity against methicillin-susceptible Staphylococcus aureus after 24 hrs by M26-A method in presence of 50% human plasma. It is filed as functional.
In data set [2] the test system is Staphylococcus aureus. Nature of the data set: Antimicrobial activity against methicillin-resistant Staphylococcus aureus by broth microdilution method. It is filed as functional. In general terms: Dilution methods test growth across graded concentrations, often in twofold steps.
Data set [3] has as its system Staphylococcus aureus. Nature of the data set: Bactericidal activity against methicillin-resistant Staphylococcus aureus 3817 on CAMHB media at 4 times MIC by time kill analysis. It is filed as functional.
In data set [4] the test system is Staphylococcus aureus. Nature of the data set: Antimicrobial activity against methicillin-susceptible Staphylococcus aureus by broth microdilution method in presence of 50% human plasma. It is filed as functional.
A short description of data set [5]: Plasma protein binding in human. Format: ADME, cell-free. The settings on record: read-out: PPB (converted).
Data set [6] relates to Staphylococcus aureus. Put plainly: Bactericidal activity against methicillin-resistant Staphylococcus aureus after 24 hrs by M26-A method. Format: functional.
Data set [7] has as its system Staphylococcus aureus. Put plainly: Bactericidal activity against methicillin-susceptible Staphylococcus aureus ATCC 25923 on CAMHB media at 4 times MIC by time kill analysis. Format: functional.
Data set [8] has as its system Staphylococcus aureus. Nature of the data set: Bactericidal activity against methicillin-resistant Staphylococcus aureus 50478 on CAMHB media at 4 times MIC by time kill analysis. It is filed as functional.
In data set [9] the test system is Staphylococcus aureus. Nature of the data set: Antimicrobial activity against methicillin-resistant Staphylococcus aureus by broth microdilution method in presence of 50% human plasma. Format: functional.
For data set [10], the system named is Staphylococcus aureus. Nature of the data set: Ratio of MBC to MIC for methicillin-susceptible Staphylococcus aureus. Format: functional.
The test system of data set [11] is Staphylococcus aureus. Put plainly: Ratio of MBC to MIC for methicillin-susceptible Staphylococcus aureus in presence of 50% human plasma. Format: functional.
Data set [12] concerns Staphylococcus aureus. Put plainly: Antimicrobial activity against methicillin-susceptible Staphylococcus aureus by broth microdilution method. Format: functional.
For data set [13], the system named is Staphylococcus aureus. Put plainly: Bactericidal activity against methicillin-resistant Staphylococcus aureus 6 on CAMHB media at 4 times MIC by time kill analysis in presence of 50% human plasma. Format: functional.
Data set [14] deals with Staphylococcus aureus. Put plainly: Bactericidal activity against methicillin-resistant Staphylococcus aureus 20 on CAMHB media at 4 times MIC by time kill analysis in presence of 50% human plasma. Format: functional.
Data set [15] has as its system Staphylococcus aureus. Nature of the data set: Bactericidal activity against methicillin-susceptible Staphylococcus aureus ATCC 25923 on CAMHB media at 4 times MIC by time kill analysis in presence of 50% human plasma. Format: functional.
Data set [16] relates to Staphylococcus aureus. Put plainly: Ratio of MIC for glycopeptide-nonsusceptible Staphylococcus aureus NJ992 in presence of 50% heat inactivated serum to MIC for glycopeptide-nonsusceptible Staphylococcus aureus NJ992. It is filed as functional.
Data set [17] has as its system Staphylococcus aureus. Nature of the data set: Bactericidal activity against methicillin-susceptible Staphylococcus aureus after 24 hrs by M26-A method. It is filed as functional.
In data set [18] the test system is Staphylococcus aureus. Nature of the data set: Bactericidal activity against methicillin-resistant Staphylococcus aureus after 24 hrs by M26-A method in presence of 50% human plasma. It is filed as functional.
For data set [19], the system named is Staphylococcus aureus. Nature of the data set: Bactericidal activity against methicillin-resistant Staphylococcus aureus 20 on CAMHB media at 4 times MIC by time kill analysis. It is filed as functional.
Data set [20] has as its system Staphylococcus aureus. Nature of the data set: Bactericidal activity against methicillin-resistant Staphylococcus aureus 50478 on CAMHB media at 4 times MIC by time kill analysis in presence of 50% human plasma. It is filed as functional.
Data set [21] has as its system Staphylococcus aureus. Nature of the data set: Bactericidal activity against methicillin-resistant Staphylococcus aureus 3817 on CAMHB media at 4 times MIC by time kill analysis in presence of 50% human plasma. Format: functional.
Data set [22] concerns Staphylococcus aureus. Put plainly: Bactericidal activity against methicillin-resistant Staphylococcus aureus 6 on CAMHB media at 4 times MIC by time kill analysis. It is filed as functional.

In brackets after ≈: the same amount, converted by molar mass. Where only a bound is given, the exact number is not on record here.

In the case of `COc1cc(Cc2cnc(N)nc2N)c2c(c1OC)OC(C1CC1)C=C2` (configuration not stated), the MBC with Staphylococcus aureus [1] came out at 0.11 µg/mL; in the data set on Staphylococcus aureus [6], 0.1 µg/mL (≈ 0.282 µM); in the data set with Staphylococcus aureus [17], 0.1 µg/mL (≈ 0.282 µM); with Staphylococcus aureus [18], 0.11 µg/mL. For the same compound, the minimum inhibitory concentration (MIC) in the data set on Staphylococcus aureus [2] was determined as 0.09 µg/mL (≈ 0.254 µM); in the data set with Staphylococcus aureus [4], 0.11 µg/mL; in the data set with Staphylococcus aureus [9], 0.11 µg/mL; against Staphylococcus aureus [12], 0.09 µg/mL (≈ 0.254 µM). Moreover, the Time with Staphylococcus aureus [3] came to 6.1 h; in the data set on Staphylococcus aureus [7] it was 6.2 h; in the data set with Staphylococcus aureus [8], 6.8 h; in the data set on Staphylococcus aureus [13] it was 7.6 h; in the data set on Staphylococcus aureus [14], 5 h; in the data set with Staphylococcus aureus [15], 7.2 h. The Time in the data set on Staphylococcus aureus [19] turned out to be 5.5 h; with Staphylococcus aureus [20], 6 h. The fraction unbound in data set [5] was 0.07. The Ratio in the data set on Staphylococcus aureus [10], in the data set on Staphylococcus aureus [11] and with Staphylococcus aureus [16] was 1 in each case.

Turning to `CC(=O)NC[C@H]1CN(c2ccc(N3CCOCC3)c(F)c2)C(=O)O1` [LINEZOLID], the MBC in the data set on Staphylococcus aureus [1], in the data set with Staphylococcus aureus [6], against Staphylococcus aureus [17] and in the data set with Staphylococcus aureus [18] was above 32 µg/mL each time. Also, the MIC in the data set with Staphylococcus aureus [2] turned out to be 3.73 µg/mL (≈ 11.1 µM); in the data set on Staphylococcus aureus [4], 2.55 µg/mL; with Staphylococcus aureus [9], 2.55 µg/mL; in the data set with Staphylococcus aureus [12] it was 3.73 µg/mL (≈ 11.1 µM).

As for `CN[C@H](CC(C)C)C(=O)N[C@H]1C(=O)N[C@@H](CC(N)=O)C(=O)N[C@H]2C(=O)N[C@H]3C(=O)N[C@H](C(=O)N[C@H](C(=O)O)c4cc(O)cc(O)c4-c4cc3ccc4O)[C@H](O)c3ccc(c(Cl)c3)Oc3cc2cc(c3O[C@@H]2O[C@H](CO)[C@@H](O)[C@H](O)[C@H]2O[C@H]2C[C@](C)(N)[C@H](O)[C@H](C)O2)Oc2ccc(cc2Cl)[C@H]1O` [VANCOMYCIN], the MBC in the data set with Staphylococcus aureus [1] was 1.52 µg/mL; in the data set on Staphylococcus aureus [6], 1.74 µg/mL (≈ 1.2 µM); in the data set on Staphylococcus aureus [17] it was 1.74 µg/mL (≈ 1.2 µM); in the data set on Staphylococcus aureus [18] it was 1.52 µg/mL. Besides, the minimum inhibitory concentration (MIC) stood at 1.62 µg/mL (≈ 1.12 µM) in the data set with Staphylococcus aureus [2], 1.46 µg/mL in the data set with Staphylococcus aureus [4], 1.46 µg/mL in the data set on Staphylococcus aureus [9] and 1.62 µg/mL (≈ 1.12 µM) in the data set on Staphylococcus aureus [12]. Further, the Time was determined as 17 h in the data set on Staphylococcus aureus [3]; 15.6 h in the data set on Staphylococcus aureus [21]; 15 h in the data set on Staphylococcus aureus [7]; 17 h in the data set on Staphylococcus aureus [14]; 12.8 h in the data set on Staphylococcus aureus [15]; 10.6 h in the data set with Staphylococcus aureus [19]. In addition, the Time in the data set on Staphylococcus aureus [20] worked out at 12 h; with Staphylococcus aureus [22], 13.5 h. The fraction unbound in data set [5] is 0.45.

As for `CC(=O)N[C@@H]1[C@H](Oc2c3cc4cc2Oc2ccc(cc2Cl)[C@@H](O[C@@H]2O[C@@H](CO)[C@@H](O)[C@H](O)[C@@H]2NC(C)=O)[C@@H]2NC(=O)[C@H](NC(=O)[C@@H]4NC(=O)[C@H]4NC(=O)[C@@H](Cc5ccc(c(Cl)c5)O3)NC(=O)[C@H](N)c3ccc(O)c(c3)Oc3cc(O)cc4c3)c3ccc(O)c(c3)-c3c(O[C@H]4O[C@H](CO)[C@@H](O)[C@@H](O)[C@@H]4O)cc(O)cc3[C@@H](C(=O)O)NC2=O)O[C@@H](CO)[C@@H](O)[C@@H]1O`, the MBC in the data set with Staphylococcus aureus [1] is 1.68 µg/mL; against Staphylococcus aureus [6], 1.41 µg/mL (≈ 0.798 µM); in the data set with Staphylococcus aureus [17], 1.41 µg/mL (≈ 0.798 µM); in the data set with Staphylococcus aureus [18], 1.68 µg/mL. Also, the MIC with Staphylococcus aureus [2] turned out to be 1.07 µg/mL (≈ 0.605 µM); with Staphylococcus aureus [4], 1.23 µg/mL; in the data set with Staphylococcus aureus [9], 1.23 µg/mL; in the data set with Staphylococcus aureus [12] it was 1.07 µg/mL (≈ 0.605 µM). In addition, the Ratio in the data set with Staphylococcus aureus [10] and in the data set with Staphylococcus aureus [11] was 1 throughout.

In the case of `CC(=O)O[C@H]1C[C@@]2(C)[C@@H](C[C@@H](O)[C@H]3[C@@]4(C)CC[C@@H](O)[C@@H](C)[C@@H]4CC[C@@]32C)/C1=C(\CCC=C(C)C)C(=O)O` [FUSIDIC ACID], the MIC against Staphylococcus aureus [2] was found to be 0.14 µg/mL (≈ 0.271 µM); in the data set on Staphylococcus aureus [4], 6.73 µg/mL; in the data set with Staphylococcus aureus [9] it was 6.73 µg/mL; against Staphylococcus aureus [12], 0.14 µg/mL (≈ 0.271 µM). The fraction unbound in data set [5] was 0.03. The Ratio in the data set with Staphylococcus aureus [10] turned out to be 2; in the data set on Staphylococcus aureus [11], 4.

The term MBC denotes the lowest tested concentration that kills the bacteria rather than only halting them. A word on the MIC: it is the smallest concentration in the dilution series that meets the test's criterion for growth inhibition.
